Data published in the supplement of paper PMC11061612.

How the values were obtained:
[1] = compound: C1CN(CCC1(C(=O)N[C@@H](CCO)C2=CC=C(C=C2)Cl)N)C3=NC=NC4=C3C=CN4 [Capivasertib]; details: max 10 µM
Outline: (§1)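 Cancer cell lines were plated in 1536-well plates in 7.5 μl of DMEM/F12 or RPMI with 10% FBS and kept 24 hours at 37°C and 5% CO2 before 72 hours of dosing, with final DMSO typically 0.2%. CellTiter-Glo 2.0 luminescence measured viability, scaled between blank-well and DMSO-well means. Dose responses were fitted to a two-parameter logistic curve with a non-linear mixed effects model. This fit gives the single-agent IC50.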

[2] = compound: C=CCn1c(=O)c2cnc(Nc3ccc(N4CCN(C)CC4)cc3)nc2n1-c1cccc(C(C)(C)O)n1 [AZD1775]; details: max 3 µM
Outline: as §1

[3] = compound: CC(=O)Nc1cccc(-n2c(=O)n(C3CC3)c(=O)c3c(Nc4ccc(I)cc4F)n(C)c(=O)c(C)c32)c1 [Trametinib]; details: max 1 µM
Outline: as §1

[4] = compound: CC(=O)c1c(C)c2cnc(Nc3ccc(N4CCNCC4)cn3)nc2n(C2CCCC2)c1=O [Palbociclib]; details: max 10 µM
Outline: as §1

[5] = compound: CC(C)n1c(=O)n(C)c2cnc3cc(F)c(-c4ccc(OCCCN5CCCCC5)nc4)cc3c21 [AZD1390]; details: max 0.3 µM
Outline: as §1

[6] = compound: CC1(C)CCC(CN2CCN(c3ccc(C(=O)NS(=O)(=O)c4ccc(NCC5CCOCC5)c([N+](=O)[O-])c4)c(Oc4cnc5[nH]ccc5c4)c3)CC2)=C(c2ccc(Cl)cc2)C1 [Venetoclax]; details: max 1 µM
Outline: as §1

[7] = compound: CC1=C(C(=CC=C1)Cl)NC(=O)C2=CN=C(S2)NC3=CC(=NC(=N3)C)N4CCN(CC4)CCO [Dasatinib]; details: max 2 µM
Outline: as §1

[8] = compound: CC1=CN2[C@@H](C1)C=NC3=CC(=C(C=C3C2=O)OC)OCCCCCOC4=C(C=C5C(=C4)N=C[C@@H]6CC(=CN6C5=O)C)OC [SG3199]; details: max 0.001 µM
Outline: as §1

[9] = compound: CCN(CCO)CCCOc1ccc2c(Nc3cc(CC(=O)Nc4cccc(F)c4)[nH]n3)ncnc2c1 [AZD2811]; details: max 1 µM
Outline: as §1

[10] = compound: CCc1c2c(nc3ccc(O)cc13)-c1cc3c(c(=O)n1C2)COC(=O)[C@]3(O)CC [SN-38]; details: max 0.3 µM
Outline: as §1

[11] = compound: CN(C)CCCOc1ccc(-c2ccc3ncc4c(c3c2)n(C2CCOCC2)c(=O)n4C)cn1 [AZD0156]; details: max 3 µM
Outline: as §1

[12] = compound: CN(CC[C@H](CSC1=CC=CC=C1)NC2=C(C=C(C=C2)S(=O)(=O)NC(=O)C3=CC=C(C=C3)N4CCC(CC4)[C@H](C5=CC=CC=C5C6=CC=C(C=C6)Cl)O)S(=O)(=O)C(F)(F)F)CCO [AZD4320]; details: max 1 µM
Outline: as §1

[13] = compound: COc1cc(Nc2ncc3c(n2)-c2ccc(Cl)cc2C(c2c(F)cccc2OC)=NC3)ccc1C(=O)O [Alisertib]; details: max 10 µM
Outline: as §1

[14] = compound: COc1cc2ncnc(Nc3ccc(F)c(Cl)c3)c2cc1OCCCN1CCOCC1 [Gefitinib]; details: max 10 µM
Outline: as §1

[15] = compound: COc1cccc(OCCCN)c1-c1cc(Nc2cnc(C#N)cn2)n[nH]1 [Prexasertib]; details: max 1 µM
Outline: as §1

[16] = compound: COc1cccc2c1C(=O)c1c(O)c3c(c(O)c1C2=O)C[C@@](O)(C(=O)CO)C[C@@H]3O[C@H]1C[C@H](N)[C@H](O)[C@H](C)O1 [Doxorubicin]; details: max 1 µM
Outline: as §1

[17] = compound: COc1nnc2ccc(N3CCC(c4ccc(OCCN5CCN(C)C(=O)[C@H]5C)cc4)CC3)nn12 [AZD5153]; details: max 1 µM
Outline: as §1

[18] = compound: CS(=O)(=O)CCNCc1ccc(-c2ccc3ncnc(Nc4ccc(OCc5cccc(F)c5)c(Cl)c4)c3c2)o1 [Lapatinib]; details: max 10 µM
Outline: as §1

[19] = compound: C[C@@H](Nc1cc(F)cc(F)c1)c1cc(C(=O)N(C)C)cc2c(=O)cc(N3CCOCC3)oc12 [AZD8186]; details: max 3 µM
Outline: as §1

[20] = compound: C[C@@H](Oc1cc(-c2cnn(C3CCNCC3)c2)cnc1N)c1c(Cl)ccc(F)c1Cl [Crizotinib]; details: max 10 µM
Outline: as §1

[21] = compound: C[C@@H](c1ccc2nccn2c1)n1nnc2ncc(-c3cnn(C)c3)nc21 [Savolitinib]; details: max 1 µM
Outline: as §1

[22] = compound: C[C@@H]1COCCN1C2=NC(=NC(=C2)C3(CC3)[S@](=N)(=O)C)C4=C5C=CNC5=NC=C4 [AZD6738]; details: max 10 µM
Outline: as §1

[23] = compound: Cc1c2c(nn1C)CSCc1cc(n(C)n1)CSc1cc(c3ccccc3c1)OCCCc1c(C(=O)O)n(C)c3c-2c(Cl)ccc13 [AZD5991]; details: max 1 µM
Outline: as §1

[24] = compound: Cc1cc2ncnn2cc1Nc1ncc2c(n1)n(C1CCOCC1)c(=O)n2C [AZD7648]; details: max 10 µM
Outline: as §1

[25] = compound: Cc1nc(-c2cn3c(n2)-c2ccc(-c4cnn(C(C)(C)C(N)=O)c4)cc2OCC3)n(C(C)C)n1 [Taselisib]; details: max 10 µM
Outline: as §1

[26] = compound: Cn1cnc2c(F)c(Nc3ccc(Br)cc3Cl)c(C(=O)NOCCO)cc21 [Selumetinib]; details: max 10 µM
Outline: as §1

[27] = compound: NC1(c2ccc(-c3nc4ccn5c(=O)[nH]nc5c4cc3-c3ccccc3)cc2)CCC1 [MK-2206]; details: max 10 µM
Outline: as §1

[28] = compound: O=C(c1cc(Cc2n[nH]c(=O)c3ccccc23)ccc1F)N1CCN(C(=O)C2CC2)CC1 [Olaparib]
Outline: as §1

Cell Line	IC50, cell viability 72 h [1] [nM]	IC50, cell viability 72 h [2] [nM]	IC50, cell viability 72 h [3] [nM]	IC50, cell viability 72 h [4] [nM]	IC50, cell viability 72 h [5] [nM]	IC50, cell viability 72 h [6] [nM]	IC50, cell viability 72 h [7] [nM]	IC50, cell viability 72 h [8] [nM]	IC50, cell viability 72 h [9] [nM]	IC50, cell viability 72 h [10] [nM]	IC50, cell viability 72 h [11] [nM]	IC50, cell viability 72 h [12] [nM]	IC50, cell viability 72 h [13] [nM]	IC50, cell viability 72 h [14] [nM]	IC50, cell viability 72 h [15] [nM]	IC50, cell viability 72 h [16] [nM]	IC50, cell viability 72 h [17] [nM]	IC50, cell viability 72 h [18] [nM]	IC50, cell viability 72 h [19] [nM]	IC50, cell viability 72 h [20] [nM]	IC50, cell viability 72 h [21] [nM]	IC50, cell viability 72 h [22] [nM]	IC50, cell viability 72 h [23] [nM]	IC50, cell viability 72 h [24] [nM]	IC50, cell viability 72 h [25] [nM]	IC50, cell viability 72 h [26] [nM]	IC50, cell viability 72 h [27] [nM]	IC50, cell viability 72 h ([28]; max 10 µM) [nM]	IC50, cell viability 72 h ([28]; max 3 µM) [nM]
NCI-H513 (Other Solid Carcinomas)	> 10000	> 3000	643	> 10000	> 300	> 1000	> 2000	> 1	> 1000	210	> 3000	> 1000	> 10000	> 10000	> 1000	> 1000	> 1000	> 10000	> 3000	> 10000	> 1000	> 10000	> 1000	> 10000	> 10000	> 10000	> 10000	> 10000	
NCI-H1573 (Lung Adenocarcinoma)	> 10000	> 3000	429	> 10000	> 300	> 1000	> 2000	> 1	> 1000	> 300	> 3000	> 1000	> 10000	> 10000	296	> 1000	> 1000	> 10000	> 3000	> 10000	> 1000	> 10000	> 1000	> 10000	> 10000	> 10000	> 10000	> 10000	
NCI-H2347 (Lung Adenocarcinoma)	> 10000	> 3000	> 1000	> 10000	> 300	> 1000	> 2000	> 1	> 1000	> 300	> 3000	> 1000	> 10000	> 10000	> 1000	> 1000	> 1000	> 10000	> 3000	> 10000	> 1000	> 10000	> 1000	> 10000	> 10000	> 10000	> 10000	> 10000	
NCI-H2405 (Lung Adenocarcinoma)	> 10000	> 3000	430	> 10000	> 300	> 1000	> 2000	> 1	> 1000	> 300	> 3000	> 1000	> 10000	> 10000	> 1000	> 1000	> 1000	> 10000	> 3000	> 10000	> 1000	> 10000	> 1000	> 10000	> 10000	> 10000	> 10000	> 10000	
OVISE (Ovarian Carcinoma)	> 10000	952	> 1000	> 10000	> 300	> 1000	415	> 1	> 1000	> 300	> 3000	463	8950	> 10000	100	> 1000	681	> 10000	> 3000	> 10000	> 1000	5980	> 1000	> 10000	449	> 10000	> 10000	> 10000	
PFSK-1 (Other Solid Carcinomas)	> 10000	1060	> 1000	> 10000	> 300	> 1000	> 2000		> 1000	32.4	> 3000	> 1000	> 10000	> 10000	40.4		> 1000	> 10000	> 3000	3070	> 1000	8130	114	> 10000	626	> 10000	2090		> 3000
RPMI-7951 (Melanoma)	3380	489	136	> 10000	> 300	> 1000	130	> 1	> 1000	15.8	> 3000	> 1000	2140	> 10000	19.4	173	630	> 10000	2730	5750	> 1000	2250	488	> 10000	2350	> 10000		> 10000	
SCC-3 (B-Cell Non-Hodgkin's Lymphoma)	> 10000	370	> 1000	> 10000	> 300	> 1000	> 2000	> 1	> 1000	6.1	> 3000	> 1000	721	> 10000	17.6	386	67.4	> 10000	> 3000	717	> 1000	1070	> 1000	> 10000	> 10000	> 10000		> 10000	
